Experiments:
Format in all cases: functional
NCI-H322M = assay: Growth inhibition of human NCI-H322M cells assessed as cell growth at 10 uM after 48 hrs by sulforhodamine B assay; details: read-out: Activity
U-251 = assay: Growth inhibition of human U251 cells assessed as cell growth at 10 uM after 48 hrs by sulforhodamine B assay; details: U-251, 48 h, read-out: Activity
HOP-62 [1] = assay: Growth inhibition of human HOP62 cells assessed as cell growth at 10 uM after 48 hrs by sulforhodamine B assay; details: HOP-62, 48 h, read-out: Activity
SK-OV-3 = assay: Growth inhibition of human SKOV3 cells assessed as cell growth at 10 uM after 48 hrs by sulforhodamine B assay; details: SK-OV-3, 48 h, read-out: Activity
CAKI-1 = assay: Growth inhibition of human CAKI-1 cells assessed as cell growth at 10 uM after 48 hrs by sulforhodamine B assay; details: CAKI-1, 48 h, read-out: Activity
PC-3 = assay: Growth inhibition of human PC3 cells assessed as cell growth at 10 uM after 48 hrs by sulforhodamine B assay; details: PC-3, 48 h, read-out: Activity
MDA-MB-435 = assay: Growth inhibition of human MDA-MB-435 cells assessed as cell growth at 10 uM after 48 hrs by sulforhodamine B assay; details: MDA-MB-435, 48 h, read-out: Activity
HL-60(TB) = assay: Growth inhibition of human HL-60(TB) cells assessed as cell growth at 10 uM after 48 hrs by sulforhodamine B assay; details: HL-60, 48 h, read-out: Activity
COLO 205 = assay: Growth inhibition of human COLO205 cells assessed as cell growth at 10 uM after 48 hrs by sulforhodamine B assay; details: COLO 205, 48 h, read-out: Activity
NCI-H522 = assay: Growth inhibition of human NCI-H522 cells assessed as cell growth at 10 uM after 48 hrs by sulforhodamine B assay; details: NCI-H522, 48 h, read-out: Activity
NCI-H23 [2] = assay: Growth inhibition of human NCI-H23 cells assessed as cell growth at 10 uM after 48 hrs by sulforhodamine B assay; details: NCI-H23, 48 h, read-out: Activity
BT-549 = assay: Growth inhibition of human BT549 cells assessed as cell growth at 10 uM after 48 hrs by sulforhodamine B assay; details: BT-549, 48 h, read-out: Activity
LOX IMVI [3] = assay: Growth inhibition of human LOXIMVI cells assessed as cell growth at 10 uM after 48 hrs by sulforhodamine B assay; details: read-out: Activity
SF-268 [4] = assay: Growth inhibition of human SF268 cells assessed as cell growth at 10 uM after 48 hrs by sulforhodamine B assay; details: SF-268, 48 h, read-out: Activity
[5] = Growth inhibition of human NCI-ADR-RES cells assessed as cell growth at 10 uM after 48 hrs by sulforhodamine B assay; details: read-out: Activity
HOP-92 = assay: Growth inhibition of human HOP92 cells assessed as cell growth at 10 uM after 48 hrs by sulforhodamine B assay; details: HOP-92, 48 h, read-out: Activity
Malme-3M = assay: Growth inhibition of human MALME-3M cells after 48 hrs by sulforhodamine B assay
OVCAR-5 = assay: Growth inhibition of human OVCAR5 cells after 48 hrs by sulforhodamine B assay; details: OVCAR-5, 48 h
K562 = assay: Growth inhibition of human K562 cells after 48 hrs by sulforhodamine B assay; details: K562, 48 h
MDA-MB-231 = assay: Growth inhibition of human MDA-MB-231 cells after 48 hrs by sulforhodamine B assay; details: MDA-MB-231, 48 h
MCF7 = assay: Growth inhibition of human MCF7 cells after 48 hrs by sulforhodamine B assay; details: MCF7, 48 h
NCI-H23 [6] = assay: Growth inhibition of human NCI-H23 cells after 48 hrs by sulforhodamine B assay; details: NCI-H23, 48 h
NCI-H226 = assay: Growth inhibition of human NCI-H226 cells after 48 hrs by sulforhodamine B assay; details: NCI-H226, 48 h
UACC-62 = assay: Growth inhibition of human UACC62 cells after 48 hrs by sulforhodamine B assay; details: UACC-62, 48 h
UO-31 = assay: Growth inhibition of human UO31 cells after 48 hrs by sulforhodamine B assay; details: UO-31, 48 h
SK-MEL-2 = assay: Growth inhibition of human SK-MEL-2 cells after 48 hrs by sulforhodamine B assay; details: SK-MEL-2, 48 h
HOP-62 [7] = assay: Growth inhibition of human HOP62 cells after 48 hrs by sulforhodamine B assay; details: HOP-62, 48 h
LOX IMVI [8] = assay: Growth inhibition of human LOXIMVI cells after 48 hrs by sulforhodamine B assay
IGROV-1 = assay: Growth inhibition of human IGROV1 cells after 48 hrs by sulforhodamine B assay; details: IGROV-1, 48 h
[9] = Growth inhibition of human HCC2998 cells after 48 hrs by sulforhodamine B assay; details: HCC 2998, 48 h
SK-MEL-28 = assay: Growth inhibition of human SK-MEL-28 cells after 48 hrs by sulforhodamine B assay; details: SK-MEL-28, 48 h
SF-268 [10] = assay: Growth inhibition of human SF268 cells after 48 hrs by sulforhodamine B assay; details: SF-268, 48 h
MOLT-4 = assay: Growth inhibition of human MOLT4 cells after 48 hrs by sulforhodamine B assay; details: MOLT-4, 48 h
[11] = read-out: LC50 (the source's name)

COc1cc(-c2nn(-c3cccc(NC(=O)Nc4ccccc4)c3)cc2-c2ccncc2)ccc1Cl
growth at 10 µM (NCI-H322M): 95.5%
growth at 10 µM (U-251): 85%
growth at 10 µM (HOP-62 [1]): 87.2%
growth at 10 µM (SK-OV-3): 97.1%
growth at 10 µM (CAKI-1): 96.1%
growth at 10 µM (PC-3): 52.5%
growth at 10 µM (MDA-MB-435): 22.6%
growth at 10 µM (HL-60(TB)): 91.3%
growth at 10 µM (COLO 205): 92.4%
growth at 10 µM (NCI-H522): 67.4%
growth at 10 µM (NCI-H23 [2]): 100%
growth at 10 µM (BT-549): 89.9%
growth at 10 µM (LOX IMVI [3]): 85.4%
growth at 10 µM (SF-268 [4]): 81.2%
growth at 10 µM [5]: 72.8%

COc1cc(-c2nn(-c3cccc(NC(=O)c4ccc(Br)c(C)c4)c3)cc2-c2ccncc2)ccc1Cl
growth at 10 µM (NCI-H322M): 91.7%
growth at 10 µM (U-251): 73.7%
growth at 10 µM (HOP-62 [1]): 91.8%
growth at 10 µM (SK-OV-3): 90.8%
growth at 10 µM (CAKI-1): 86.8%
growth at 10 µM (PC-3): 59.4%
growth at 10 µM (MDA-MB-435): 34.7%
growth at 10 µM (HOP-92): 51.3%
growth at 10 µM (HL-60(TB)): 114%
growth at 10 µM (COLO 205): 76.2%
growth at 10 µM (NCI-H522): 45.1%
growth at 10 µM (NCI-H23 [2]): 86.9%
growth at 10 µM (BT-549): 91.4%
growth at 10 µM (LOX IMVI [3]): 75.4%
growth at 10 µM (SF-268 [4]): 84.1%
growth at 10 µM [5]: 66.5%

O=C(Nc1cccc(-n2cc(-c3ccncc3)c(-c3ccc(Cl)c(O)c3)n2)c1)Nc1ccc(Cl)c(Cl)c1
GI50 (Malme-3M): 1.19 µM
LC50 (concentration killing 50% of starting cells) (Malme-3M): > 32.5 µM
TGI (Malme-3M): 8.1 µM
GI50 (OVCAR-5): 2.4 µM
LC50 (concentration killing 50% of cells) (OVCAR-5): > 32.5 µM
TGI (OVCAR-5): > 32.5 µM
GI50 (K562): 1.41 µM
TGI (K562): > 32.5 µM
CC50 (K562; [11]): > 32.5 µM
GI50 (MDA-MB-231): 1.18 µM
LC50 (MDA-MB-231): > 32.5 µM
TGI (MDA-MB-231): 8.33 µM
growth at 10 µM (NCI-H322M): 40.6%
growth at 10 µM (U-251): 12.4%
growth at 10 µM (HOP-62 [1]): 34.4%
growth at 10 µM (SK-OV-3): 18.7%
growth at 10 µM (CAKI-1): 22.5%
growth at 10 µM (PC-3): 5.43%
growth at 10 µM (MDA-MB-435): 9.98%
GI50 (MCF7): 1.06 µM
LC50 (MCF7): > 32.5 µM
TGI (MCF7): > 32.5 µM
GI50 (NCI-H23 [6]): 1.22 µM
LC50 (NCI-H23 [6]): > 32.5 µM
TGI (NCI-H23 [6]): 29.1 µM
growth at 10 µM (HOP-92): -20.2%
GI50 (NCI-H226): 1.51 µM
TGI (NCI-H226): > 32.5 µM
CC50 (NCI-H226; [11]): > 32.5 µM
GI50 (UACC-62): 1.11 µM
LC50 (50% lethal concentration) (UACC-62): 29.2 µM
TGI (UACC-62): 5.21 µM
growth at 10 µM (HL-60(TB)): -6.98%
growth at 10 µM (COLO 205): 30.2%
growth at 10 µM (NCI-H522): -6.8%
GI50 (UO-31): 1.25 µM
TGI (UO-31): > 32.5 µM
CC50 (UO-31; [11]): > 32.5 µM
growth at 10 µM (NCI-H23 [2]): 13.5%
GI50 (SK-MEL-2): 1.03 µM
LC50 (50% lethal concentration) (SK-MEL-2): > 32.5 µM
TGI (SK-MEL-2): 2.64 µM
GI50 (HOP-62 [7]): 2.08 µM
TGI (HOP-62 [7]): 17.6 µM
CC50 (HOP-62 [7]; [11]): > 32.5 µM
GI50 (LOX IMVI [8]): 0.939 µM
LC50 (LOX IMVI [8]): 15 µM
TGI (LOX IMVI [8]): 3.57 µM
GI50 (IGROV-1): 1.77 µM
LC50 (concentration killing 50% of cells) (IGROV-1): > 32.5 µM
TGI (IGROV-1): > 32.5 µM
GI50 [9]: 2.89 µM
TGI [9]: 13.9 µM
CC50 [9, 11]: > 32.5 µM
GI50 (SK-MEL-28): 1.46 µM
LC50 (SK-MEL-28): > 32.5 µM
TGI (SK-MEL-28): 9.85 µM
GI50 (SF-268 [10]): 1.49 µM
TGI (SF-268 [10]): 10.9 µM
CC50 (SF-268 [10]; [11]): > 32.5 µM
GI50 (MOLT-4): 1.38 µM
TGI (MOLT-4): > 32.5 µM
CC50 (MOLT-4; [11]): > 32.5 µM
growth at 10 µM (BT-549): 34.4%
growth at 10 µM (LOX IMVI [3]): 21.9%
growth at 10 µM (SF-268 [4]): 29.1%
growth at 10 µM [5]: 20.9%
